As usually defined, the LD50 is the dose expected to kill half of the subjects tested.

Consider one molecule from patent publication US6060604A, “Pharmaceutical compounds comprising polyamines substituted with electron-affinic groups” (priority 1996, dated 2000).

The subject of one series is mice. The following applies: reported value for metro; cited from earlier work.
Another series in a line: in vivo. The following applies: mouse, po.
The conditions of series [1]: cited from earlier work.
A further series relates to CHO cells. The experiment in a line: radiosensitization potency on hypoxic CHO cells at 20% survival, single X ray dose 8 Gy (Table 2). It counts as cell-based, Chinese hamster. The following applies: Cricetulus griseus, CHO; hypoxic, single X ray dose of 8 Gy; read-out: drug molarity required to reduce cell survival to 20% of the untreated control value. The procedure:
(§1) Cells were plated and allowed to attach on glass petri dishes for 3 h, then the media was replaced with 5 ml of Hank's balanced salt solution (HBSS) with or without drugs. To induce cell hypoxia, the dishes were placed at room temperature into sealed aluminum chambers (8 dishes/chamber). The chambers were degassed by pumping, and then back-filled with 95% N2 and 5% CO2. This procedure was repeated 4 times with 5 min holding periods under positive gas pressure between evacuations. After 1 h, when the cells were severely hypoxic, the chambers were placed in 37° C. water bath for 1 hr. For oxic treatment groups, cells were placed in 37° C. incubators for 2 h with 5 ml of HBSS (±drugs). The chambers were placed on a rotating table and exposed to an X-ray beam generated by a General Electric Maxitron 300 therapy machine operated at 250 kVp and 20 mA (HVL 20 mm Al filter; dose rate at 2 Gy/min). After irradiation, cells were rinsed with HBSS, and covered with fresh media. Cells were cultured for 7 days in a 37° C. incubator. The resulting cell colonies were stained and counted.
In the experiment shown in Table 2 hypoxic CHO cells were irradiated with a single X ray dose of 8 Gy, with or without drugs.

The next series relates to hypoxic CHO cells. The experiment in a line: radiosensitizing hypoxic CHO cells, drugs given 2 hours at 4° C. It counts as cell-based, Chinese hamster.
Series [2] has as its system viral infections; cutaneous inflammation; eye disorders. The following applies: cited from earlier work.
Series [3] can be described thus: in vitro toxicity on hypoxic CHO cells, colony formation. In kind it is cell-based, Chinese hamster. The following applies: hamster, cho cells, 10 mM, 12 hours at 37° C., read-out: reduction in colony formation. On the procedure: Subsequently, hypoxic CHO cells were incubated with 0.2 mM DATM or 10 mM metro for 12 hours at 37° C.
Series [4] has as its system Chinese hamster ovary (CHO) cells. The experiment in a line: in vitro radiosensitization of hypoxic CHO cells, colony formation (Table 1). It counts as cell-based. The following applies: drug dose 0.5 mM. The procedure:
as §1, with “The chambers were degassed by pumping, and then back-filled with 95% N2 and 5% CO2.” left out

Structures are written as SMILES.

Consider `Cc1ncc([N+](=O)[O-])n1CCO` [metronidazole, 1-(2-hydroxyethyl)-2-methyl-5-nitroimidazole], for which, in the series on mice, the LD50 result is on record as “about 3.3 g/kg”. In “in vivo”, the LD50 is ~4000 mg/kg. In addition, in series [1] (as radiosensitizers), the “toxicity at therapeutic levels” value was “highly toxic at therapeutic levels”. Also, in series [1] (dermatological use), the photosensitization result was “photosensitizer”. Moreover, in the series on CHO cells, the IC80 was 10 mM. Besides, the “radiosensitizing effectiveness, 0.2 mM DATM vs 10 mM metro” value with hypoxic CHO cells is recorded as “equally effective”. For the same molecule, in series [2], the “treatment of cutaneous inflammation due to dermatosis such as eczema, ulcers, acne, and rosacea” value is “effective”; the “treatment of eye disorders such as blepharoconjunctivitis and meibomian gland dysfunctions” value was “effective”; the “treatment of viral infections such as measles, herpes, and viral diverticulitis” value is “effective”. Also, the cytotoxicity at 12 h, 10000 µM in series [3] was 95%. The Do in series [4] is 3.3 Gy.
